According to ChEMBL document CHEMBL1155505, “Penicinoline, a new pyrrolyl 4-quinolinone alkaloid with an unprecedented ring system from an endophytic fungus Penicillium sp” (Bioorg Med Chem Lett, 2010):
In brackets after ≈: the same amount, converted by molar mass.

Key:
Uromyces viciae-fabae = experiment: […] activity against Uromyces fabae; type: functional
[1] = Cytotoxicity against human 95-D cells; type: functional, cell-based
HepG2 = experiment: Cytotoxicity against human HepG2 cells; type: functional, cell-based
HeLa = experiment: Cytotoxicity against human HeLa cells; type: functional, cell-based
KB = experiment: Cytotoxicity against human KB cells; type: functional, cell-based
[2] = Cytotoxicity against human KBv200 cells; type: functional, cell-based
HEp-2 = experiment: Cytotoxicity against human Hep2 cells; type: functional, cell-based
Aphis gossypii = experiment: Insecticidal activity against Aphis gossypii; type: functional
Plutella xylostella = experiment: Insecticidal activity against Plutella xylostella; type: functional
Heliothis virescens = experiment: Insecticidal activity against Heliothis virescens; type: functional
Zymoseptoria tritici = experiment: […] activity against Septoria tritici; type: functional

For `O=C(O)c1c(-c2ccc[nH]2)[nH]c2ccccc2c1=O` [PENICINOLINE], the min. effective conc. (Uromyces viciae-fabae) was greater than 1000 ppm, the IC50 [1] was 0.57 µg/mL (≈ 2.24 µM) and the IC50 (HepG2) was 6.5 µg/mL (≈ 25.6 µM). For the same compound, the IC50 (HeLa) was greater than 100 µg/mL, the IC50 (KB) was greater than 100 µg/mL and the IC50 [2] was greater than 100 µg/mL. The IC50 (HEp-2) was greater than 100 µg/mL, the min. effective conc. (Aphis gossypii) was 1000 ppm and the min. effective conc. (Plutella xylostella) was greater than 1000 ppm. For the same compound, the min. effective conc. (Heliothis virescens) was greater than 1000 ppm and the min. effective conc. (Zymoseptoria tritici) was greater than 1000 ppm.

`Cn1c2c(c(=O)c3ccccc31)C(=O)n1cccc1-2` [PENICINOTAM] showed a min. effective conc. (Uromyces viciae-fabae) greater than 1000 ppm, a min. effective conc. (Aphis gossypii) of 1000 ppm and a min. effective conc. (Plutella xylostella) of 500 ppm. For the same compound, the min. effective conc. (Heliothis virescens) was greater than 1000 ppm and the min. effective conc. (Zymoseptoria tritici) was greater than 1000 ppm.
